The values that follow come from patent US20240207216A1, “COMPOSITIONS AND METHOD FOR TREATING GUT PERMEABILITY CAUSED BY HYDROGEN SULFIDE PRODUCING BACTERIA” (UNM RAINFOREST INNOVATIONS, priority 2022, published 2024).

The subject of test [1] is TNF-α. In words: DSV-induced cellular TNF-α expression, Western blot in RAW cells. Format: cell-based, murine. Conditions: 200 μM, 3 h before DSV 4 h; DSV alone 24.67±2.51. As to the method:
(§1) RAW 264.7 murine macrophage-like cells were grown in DMEM+10% FBS without any use of antibiotics or antimycotics. Cells were grown at 37° C. in a humidified incubator with 5% CO2. Prior to the day of infection, 8×10^5 cells were plated in a six-well plate and infected with DSV at multiplicity of infection 20 (MOI 20) for various times. For drug treatments, cells were incubated with LY294002 at 10 μM or 50 μM for one hour followed by DSV infection for 30 minutes or four hours. For TL2-C29 treatment, cells were incubated with the inhibitor at 200 μM for three hours followed by infection with DSV for four hours.
(§2) Cells were lysed in Lysis buffer containing protease and phosphatase inhibitors (Thermo Fisher Scientific, Inc., Waltham, MA) for 20 minutes at 4° C. Lysates were centrifuged at 12,000 rpm for five mins at 4° C. and supernatants were collected. Protein concentration in the supernatants was determined with Bradford reagent (Bio-Rad Laboratories, Inc., Hercules, CA). 50 μg of protein samples were run on SDS-PAGE (4-20% tris-glycine) and transferred to nitrocellulose membranes. Membranes were blocked in 5% milk in PBS-T (0.1% Tween 20) for 30 minutes followed by overnight incubation in primary antibodies in cold room. All antibodies except iNOS were purchased from Cell Signaling Technology (Danvers, MA): Actin (4970), p-AktS473(4060), p-Akt T308(13038), Akt (9272), p-P70S6K (9205), P70S6K (2708, TNF-α (19948). iNOS antibody was purchased from Abcam (Cambridge United Kingdom). Antibodies were diluted as recommended by the manufacturer. The following day, blots were washed with PBS-T and incubated with secondary antibodies (Cell Signaling Technology, Danvers, MA) at room temperature for one hour (dilution of 1:2000) and developed using enhanced chemiluminescence HRP signal (Thermo Fisher Scientific, Inc., Waltham, MA).
(§3) All graphs were generated using PRISM 9.4.1 GraphPad Software Inc., San Diego, CA). Data is plotted as Mean±SEM relative to control. Each experiment was conducted at least three independent times. […]
For orientation: A western blot detects proteins with antibodies after separation by electrophoresis.

Test [2] concerns iNOS. In words: DSV-induced iNOS expression, Western blot in RAW cells. The class given is cell-based, murine. Conditions: 200 μM, 3 h before DSV 4 h; DSV alone 30.25±6.82. As to the method:
as §1, §2, §3

Test [3] has as its system secreted TNF-α. In words: DSV-induced secreted TNF-α, Western blot of RAW cell culture supernatant. The class given is cell-based, murine. Particulars: 200 μM, 3 h before DSV 4 h; DSV alone 38.09±5.188. The procedure:
FIG. 12. LY294002 inhibits DSV-induced activation of PI3K/Akt/TNF pathway. (A) RAW cells were treated with LY at either 10 μM or 50 μM for one hour before infection with DSV for four hours. Cells were lysed and protein lysate was prepared. Fifty μg of protein lysate was separated on SDS-PAGE and analyzed for p-Akt, Akt, TNF, iNOS, p-p70S6K, and total p70S6K by Western blotting. Actin was used as a loading control. (B) Quantification of p-Akt-Akt Western blot. (C) Quantification of p-P70/P70 Western blot. (D) Quantification of TNF-α/actin Western blot. (E) Post-infection, RAW cell culture supernatant was collected and proteins were precipitated using ethanol precipitation. Proteins were resuspended in PBS and 50 μg of proteins were loaded on SDS-PAGE and secreted TNF-α was detected using TNF-α antibody. Actin was used as a loading control.
as §1
Cells were lysed in Lysis buffer containing protease and phosphatase inhibitors (Thermo Fisher Scientific, Inc., Waltham, MA) for 20 minutes at 4° C. Lysates were centrifuged at 12,000 rpm for five mins at 4° C. and supernatants were collected. Protein concentration in the supernatants was determined with Bradford reagent (Bio-Rad Laboratories, Inc., Hercules, CA). 50 μg of protein samples were run on SDS-PAGE (4-20% tris-glycine) and transferred to nitrocellulose membranes. Membranes were blocked in 5% milk in PBS-T (0.1% Tween 20) for 30 minutes followed by overnight incubation in primary antibodies in cold room. […]

In test [4] the test system is p-Akt/Akt. As to the kind of experiment: DSV-induced Akt phosphorylation, Western blot in RAW cells. Particulars: 200 μM, 3 h before DSV 4 h; DSV alone 3.18±0.30. The class given is cell-based, murine. The procedure:
as §1, §2, §3

For test [5], the system named is Snail. As to the kind of experiment: DSV-induced Snail protein expression by Western blot. Format: cell-based, Human. Particulars: 100 nM, 2 h before DSV MOI 20 for 24 h; DSV alone 7.14±0.73. The procedure:
FIG. 16. Rapamycin reduces DSV-induced Snail protein expression. Polarized Caco-2 cells were treated with 100 nM rapamycin for two hours, followed by DSV infection (MOI 20) for 24 hours. Cells were harvested and lysed. (A) Protein lysate was analyzed for Snail expression by Western blotting. (B) Quantitation of Snail expression from Western blot in (A). DSV: 7.14±0.73; DSV+Rapamycin: 3.10±0.74, **p<0.01.
Human colonic epithelial cells Caco-2 were purchased from the American Type Culture Collection (ATCC, Manassas, VA). Cells were grown in DMEM+20% FBS+penicillin and streptomycin (Thermo Fisher Scientific, Inc., Waltham, MA). Cells were grown at 37° C. in a humidified incubator with 5% CO2. To allow polarization and differentiation, cells were seeded at a density of 5×10^3 cells/well in 12-well 0.4 μm trans-well inserts for three weeks. Twenty-four hours before infection, growth medium was replaced with colorless medium (DMEM+20^0/o FBS) without antibiotics. […]
Cells were lysed in lysis buffer (Thermo Fisher Scientific, Inc., Waltham, MA; catalog #87787) containing protease and phosphatase inhibitors (Thermo Fisher Scientific, Inc., Waltham, MA; catalog #1861281) for 20 minutes at 4° C. with shaking. […] Protein concentration in the supernatants was determined with Bradford reagent (Bio-Rad Laboratories, Inc., Hercules, CA). […]

In test [6] the test system is PI3K/Akt pathway. In words: DSV-induced PI3K/Akt signaling with receptor antagonists. Particulars: pretreatment of cells before DSV. The class given is cell-based, murine. As to the method:
PI3k/Akt pathway is activated downstream of receptors such as RTKs and G-protein coupled receptors and also by TLRs activation which is often observed in the case of infections with various bacteria. Thus, cells were treated with different TLR antagonists to check for the involvement of TLR 2, TLR 4, or TLR 5 in DSV-mediated activation of PI3K/Akt pathway. […] DSV-induced phosphorylation of AKT was inhibited by C29 (DSV:3.18±0.30; DSV+C29: 1.58±0.29, p<0.05, FIG. 14, FIG. 15A). […] PI3K/Akt is classically activated by a vast number of stimuli through receptor tyrosine kinases (RTK). Thus, tryphostin AS1478, a common tyrosine kinase inhibitor, was used as an antagonist to EGFR signaling to test whether DSV-induced PI3k/Akt/TNF/iNOS pathway was dependent on RTK-mediated signaling.

Test [7] concerns sulfate reducing bacteria. Conditions: batch culture; cited from earlier work.

With `COc1cccc(C=Nc2cccc(C(=O)O)c2C)c1O` [C29], the “cellular TNF-α protein, normalized to control” value in test [1] is given as 8.57±2.81. Besides, in test [2], the “iNOS protein expression, normalized to control” value turned out to be 2.32±1.48. Further, in test [3], the “secreted TNF-α, normalized to control” value was 1.103±0.03408. The “p-Akt/Akt, normalized to control” value in test [4] was determined as 1.58±0.29.
`CO[C@H]1C[C@@H]2CC[C@@H](C)[C@@](O)(O2)C(=O)C(=O)N2CCCC[C@H]2C(=O)O[C@H]([C@H](C)C[C@@H]2CC[C@@H](O)[C@H](OC)C2)CC(=O)[C@H](C)/C=C(\C)[C@@H](O)[C@@H](OC)C(=O)[C@H](C)C[C@H](C)/C=C/C=C/C=C/1C` [Rapamycin, rapamycin]: the “Snail expression from Western blot” value in test [5] was determined as 3.10±0.74.
`c1ccc(Cn2c(Sc3ncnc4c3sc3ncccc34)nnc2-c2ccncc2)cc1` [TH1020]: the “effect on DSV-induced PI3K/Akt signaling” value in test [6] is reported as “Neither TLR4 antagonist TLR-IN-C34 nor TLR5 antagonist TH1020 had any discernable effect”.
For the compound `CC(=O)N[C@H]1[C@@H](OC(C)C)O[C@H](COC(C)=O)[C@@H](OC(C)=O)[C@@H]1OC(C)=O` [TLR-IN-C34], the “effect on DSV-induced PI3K/Akt signaling” value in test [6] was “Neither TLR4 antagonist TLR-IN-C34 nor TLR5 antagonist TH1020 had any discernable effect”.
`[Mg+2].[O-][O-]` [magnesium peroxide (MgO2), magnesium peroxide]: in test [7], the “number of sulfate reducing bacteria” value is recorded as “inhibited”, the “sulfate reducing rate (SRR)” value is listed as “inhibited” and the sulfide concentration entry is listed as “inhibited”.
Consider `COc1cc2ncnc(Nc3cccc(Cl)c3)c2cc1OC` [tryphostin AS1478], for which the “effect on DSV-induced PI3K/Akt signaling” value in test [6] is recorded as “No inhibition”.
